Results as given in patent US20120015957A1, “PIPERAZINYL DERIVATIVES USEFUL AS MODULATORS OF THE NEUROPEPTIDE Y2 RECEPTOR” (priority 2007, published 2012).

Target: T1, NPY Y2 receptor (Homo sapiens, UniProt P49146)
T1 construct: endogenous in cells; host or cells: KAN-Ts cells (membrane preparation)
T1 sequence (P49146 1-381): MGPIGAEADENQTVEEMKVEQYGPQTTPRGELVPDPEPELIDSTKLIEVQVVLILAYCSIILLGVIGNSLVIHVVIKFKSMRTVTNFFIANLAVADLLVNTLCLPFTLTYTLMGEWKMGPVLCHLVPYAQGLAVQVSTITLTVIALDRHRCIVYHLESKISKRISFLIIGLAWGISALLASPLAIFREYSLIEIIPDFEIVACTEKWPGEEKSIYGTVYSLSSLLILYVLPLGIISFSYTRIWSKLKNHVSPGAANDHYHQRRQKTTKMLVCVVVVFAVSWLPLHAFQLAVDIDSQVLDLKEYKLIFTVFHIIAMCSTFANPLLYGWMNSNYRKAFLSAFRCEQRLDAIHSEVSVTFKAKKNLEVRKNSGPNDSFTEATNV
Assay: Neuropeptide Y2 radioligand binding assay ([125I]PYY, KAN-Ts cell membranes)
Conditions: not given
Procedure, shortened: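 Membranes from KAN-Ts cells (endogenous Y2) incubated 1 h at rt with 80 pM [125I]PYY ± compound in HEPES/NaCl binding buffer, then filtered and counted. Nonspecific binding defined with […]. IC50 from sigmoidal fits; apparent K = IC50/(1+C/KD).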

| Compound | IC50 [µM] |
| --- | --- |
| CCNC(=O)C(c1ccccc1)N1CCN(c2ccc(-c3nc(C(C)C)no3)cc2C#N)CC1 (stereo not shown) [Compound 270] | 0.062 |

Same assay, conditions: membranes of KAN-Ts cells endogenously expressing Y2 receptors; [125I]PYY 80 pM; 1 h at rt; read-out: IC50 (μM), NPY Y2 binding

| Compound | IC50 [µM] |
| --- | --- |
| CCN(CC)C(=O)C(c1ccccc1)N1CCN(c2ccc(-c3noc(C)n3)cc2F)CC1 (stereo not shown) [Compound 67, N,N-Diethyl-2-{4-[2-fluoro-4-(5-methyl-[1,2,4]oxadiazol-3-yl)-phenyl]-piperazin-1-yl}-2-phenyl-acetamide] | 0.18 |
| CCN(CC)C(=O)C(c1ccccc1)N1CCN(c2ccc(-c3noc(C(C)C)n3)cc2F)CC1 (stereo not shown) [Compound 69, N,N-Diethyl-2-{4-[2-fluoro-4-(5-isopropyl-[1,2,4]oxadiazol-3-yl)-phenyl]-piperazin-1-yl}-2-phenyl-acetamide] | 0.13 |
| CCN(CC)C(=O)C(c1ccccc1)N1CCN(c2ccc(-c3nc(C)no3)cc2F)CC1 (stereo not shown) [Compound 119, N,N-Diethyl-2-{4-[2-fluoro-4-(3-methyl-[1,2,4]oxadiazol-5-yl)-phenyl]-piperazin-1-yl}-2-phenyl-acetamide] | 0.085 |
| CCN(CC)C(=O)C(c1cccc(F)c1)N1CCN(c2ccc(-c3nc(C)no3)cc2F)CC1 (stereo not shown) [Compound 211, N,N-Diethyl-2-{4-[2-fluoro-4-(3-methyl-[1,2,4]oxadiazol-5-yl)-phenyl]-piperazin-1-yl}-2-(3-fluoro-phenyl)-acetamide] | 0.083 |
| CCN(CC)C(=O)C(c1ccccc1)N1CCN(c2ccc(-c3nnc(C(C)C)[nH]3)cc2F)CC1 (stereo not shown) [Compound 212, N,N-Diethyl-2-{4-[2-fluoro-4-(5-isopropyl-2H-[1,2,4]triazol-3-yl)-phenyl]-piperazin-1-yl}-2-phenyl-acetamide] | 0.83 |
| COC(=O)C(c1ccccc1)N1CCN(c2ccc(-c3nc(C(C)C)no3)cc2F)CC1 (stereo not shown) [Compound 213, {4-[2-Fluoro-4-(3-isopropyl-[1,2,4]oxadiazol-5-yl)-phenyl]-piperazin-1-yl}-phenyl-acetic acid methyl ester] | 0.24 |
| CCN(CC)C(=O)C(c1ccccc1)N1CCN(c2ccc(-c3ccccc3OC)cc2F)CC1 (stereo not shown) [Compound 214, N,N-Diethyl-2-[4-(3-fluoro-2′-methoxy-biphenyl-4-yl)-piperazin-1-yl]-2-phenyl-acetamide] | 0.078 |
| CCN(CC)C(=O)C(c1ccccc1)N1CCN(c2ccc(-c3nc(C)n(C)n3)cc2F)CC1 (stereo not shown) [Compound 215, 2-{4-[4-(1,5-Dimethyl-1H-[1,2,4]triazol-3-yl)-2-fluoro-phenyl]-piperazin-1-yl}-N,N-diethyl-2-phenyl-acetamide] | 1.1 |
| CCN(CC)C(=O)C(c1ccccc1)N1CCN(c2ccc(-c3nc(C(C)C)n(C)n3)cc2F)CC1 (stereo not shown) [Compound 216, N,N-Diethyl-2-{4-[2-fluoro-4-(5-isopropyl-1-methyl-1H-[1,2,4]triazol-3-yl)-phenyl]-piperazin-1-yl}-2-phenyl-acetamide] | 1.95 |
| Cc1noc(-c2ccc(N3CCN(C(C(=O)OC(C)(C)C)c4ccccc4)CC3)c(F)c2)n1 (stereo not shown) [Compound 219, {4-[2-Fluoro-4-(3-methyl-[1,2,4]oxadiazol-5-yl)-phenyl]-piperazin-1-yl}-phenyl-acetic acid tert-butyl ester] | 0.66 |
| CCN(CC)C(=O)C(c1ccccc1)N1CCN(c2ccc(-c3nc(C(C)C)nn3C)cc2F)CC1 (stereo not shown) [Compound 220, N,N-Diethyl-2-{4-[2-fluoro-4-(5-isopropyl-2-methyl-2H-[1,2,4]triazol-3-yl)-phenyl]-piperazin-1-yl}-2-phenyl-acetamide] | 1 |
| CCN(CC)C(=O)C(c1ccccc1)N1CCN(c2ccc(-c3nc(C(C)C)no3)cc2C(N)=O)CC1 (stereo not shown) [Compound 221, 2-[4-(Diethylcarbamoyl-phenyl-methyl)-piperazin-1-yl]-5-(3-isopropyl-[1,2,4]oxadiazol-5-yl)-benzamide] | 2.1 |
| CCOC(=O)C(C)(c1ccccc1)N1CCN(c2ccc(-c3nc(C)no3)cc2F)CC1 (stereo not shown) [Compound 226, 2-{4-[2-Fluoro-4-(3-methyl-[1,2,4]oxadiazol-5-yl)-phenyl]-piperazin-1-yl}-2-phenyl-propionic acid ethyl ester] | 1 |
| CCN(CC)C(=O)C(c1ccc(OC)cc1)N1CCN(c2ccc(-c3nc(C)no3)cc2C#N)CC1 (stereo not shown) [Compound 250, 2-{4-[2-Cyano-4-(3-methyl-[1,2,4]oxadiazol-5-yl)-phenyl]-piperazin-1-yl}-N,N-diethyl-2-(4-methoxy-phenyl)-acetamide] | 0.035 |
| CCN(CC)C(=O)C(c1ccccc1OC)N1CCN(c2ccc(-c3nc(C)no3)cc2C#N)CC1 (stereo not shown) [Compound 251, 2-{4-[2-Cyano-4-(3-methyl-[1,2,4]oxadiazol-5-yl)-phenyl]-piperazin-1-yl}-N,N-diethyl-2-(2-methoxy-phenyl)-acetamide] | 0.49 |
| CCN(CC)C(=O)C(c1cccs1)N1CCN(c2ccc(-c3nc(C)no3)cc2C#N)CC1 (stereo not shown) [Compound 252, 2-{4-[2-Cyano-4-(3-methyl-[1,2,4]oxadiazol-5-yl)-phenyl]-piperazin-1-yl}-N,N-diethyl-2-thiophen-2-yl-acetamide] | 0.096 |
| CCN(CC)C(=O)C(c1ccccc1)N1CCN(c2ccc(-c3ccccc3C#N)cc2F)CC1 (stereo not shown) [Compound 253, 2-[4-(2′-Cyano-3-fluoro-biphenyl-4-yl)-piperazin-1-yl]-N,N-diethyl-2-phenyl-acetamide] | 8.3 |
| CCN(CC)C(=O)C(c1ccccc1)N1CCN(c2ccc(-c3ccccc3C)cc2F)CC1 (stereo not shown) [Compound 254, N,N-Diethyl-2-[4-(3-fluoro-2′-methyl-biphenyl-4-yl)-piperazin-1-yl]-2-phenyl-acetamide] | 1 |
| CCN(CC)C(=O)C(c1ccccc1)N1CCN(c2ccc(-c3ccccc3OC)cc2C#N)CC1 (stereo not shown) [Compound 255, 2-[4-(3-Cyano-2′-methoxy-biphenyl-4-yl)-piperazin-1-yl]-N,N-diethyl-2-phenyl-acetamide] | 0.03 |
| CCN(CC)C(=O)C(c1ccccc1)N1CCN(c2ccc(-c3nc(C(C)C)no3)cc2C=O)CC1 (stereo not shown) [Compound 256, N,N-Diethyl-2-{4-[2-formyl-4-(3-isopropyl-[1,2,4]oxadiazol-5-yl)-phenyl]-piperazin-1-yl}-2-phenyl-acetamide] | 0.17 |
| CCN(CC)C(=O)C(c1ccccc1)N1CCN(c2ccc(-c3nc(C(C)C)no3)cc2CO)CC1 (stereo not shown) [Compound 257, N,N-Diethyl-2-{4-[2-hydroxymethyl-4-(3-isopropyl-[1,2,4]oxadiazol-5-yl)-phenyl]-piperazin-1-yl}-2-phenyl-acetamide] | 0.34 |
| CCN(CC)C(=O)C(c1ccccc1)N1CCN(c2ccc(-c3nc(C(C)C)no3)cc2CNC)CC1 (stereo not shown) [Compound 258, N,N-Diethyl-2-{4-[4-(3-isopropyl-[1,2,4]oxadiazol-5-yl)-2-methylaminomethyl-phenyl]-piperazin-1-yl}-2-phenyl-acetamide] | 1.8 |
| CCN(CC)C(=O)C(c1ccccc1)N1CCN(c2ccc(-c3nc(C(C)C)no3)cc2CN(C)C)CC1 (stereo not shown) [Compound 259, 2-{4-[2-Dimethylaminomethyl-4-(3-isopropyl-[1,2,4]oxadiazol-5-yl)-phenyl]-piperazin-1-yl}-N,N-diethyl-2-phenyl-acetamide] | 2.4 |
| CCN(CC)C(=O)C(c1ccccc1)N1CCN(c2ccc(-c3nc(C(C)C)no3)cc2COC)CC1 (stereo not shown) [Compound 260, N,N-Diethyl-2-{4-[4-(3-isopropyl-[1,2,4]oxadiazol-5-yl)-2-methoxymethyl-phenyl]-piperazin-1-yl}-2-phenyl-acetamide] | 0.98 |
| CCNC(=O)C(c1ccccc1)N1CCN(c2ccc(-c3nc(C)no3)cc2C#N)CC1 (stereo not shown) [Compound 261, 2-{4-[2-Cyano-4-(3-methyl-[1,2,4]oxadiazol-5-yl)-phenyl]-piperazin-1-yl}-N-ethyl-2-phenyl-acetamide] | 0.41 |
| CCN(CC)C(=O)C(c1ccc(F)cc1)N1CCN(c2ccc(-c3nc(C)no3)cc2C#N)CC1 (stereo not shown) [Compound 262, 2-{4-[2-Cyano-4-(3-methyl-[1,2,4]oxadiazol-5-yl)-phenyl]-piperazin-1-yl}-N,N-diethyl-2-(4-fluoro-phenyl)-acetamide] | 0.098 |
| CCN(CC)C(=O)C(c1ccccc1)N1CCN(c2ccc(-c3nc(C)ns3)cc2F)CC1 (stereo not shown) [Compound 271, N,N-Diethyl-2-{4-[2-fluoro-4-(3-methyl-[1,2,4]thiadiazol-5-yl)-phenyl]-piperazin-1-yl}-2-phenyl-acetamide] | 0.11 |

Target: T1, NPY Y2 receptor
Assay: Neuropeptide Y2 pKB assay (FLIPR, KAN-Ts cells stably expressing chimeric G proteins)
Format: cell-based
Conditions: apparent pKB, FLIPR calcium, KAN-Ts cells with chimeric G proteins; modified Cheng-Prusoff correction
Description: The assay was performed using the fluorimetric imaging plate reader (FLIPR) format as described in Dautzenberg, F. M., Biochemical Pharmacology 2005, 69, 1493.
KAN-Ts cells stably expressing chimeric G proteins were seeded at a density of 100,000 cells into poly-d-lysine coated 384-well blackwall, clear-bottom microtiter plates (Corning, N.Y.). One day later, the medium was removed and 50 μl loading medium DMEM high glucose, without serum, supplemented with 10 mM HEPES-acid, 0.1% BSA, 5 mM probenecid and 2 μM Fluo-3AM was added. Cells were loaded for 1 h at 37° C., washed twice with 50 μl assay buffer (5 mM HEPES-acid, 140 mM NaCl, 1 mM MgCl2, 5 mM KCl, 10 mM glucose) and then 30 μl assay buffer was added. Cells were further pre-incubated at room temperature before adding agonists or agonists plus antagonists in 20 μl assay buffer and then measured on a T-channel fluorometric imaging plate reader (FLIPR, Molecular Devices, Sunnyvale, Calif.). Antagonistic potency values were converted to apparent pKB values using a modified Cheng-Prusoff correction. Apparent pKB was calculated as pKB=−log IC50/1+[conc agonist/EC50].

| Compound | Kb [nM] |
| --- | --- |
| CCN(CC)C(=O)C(c1ccccc1)N1CCN(c2ccc(-c3noc(C)n3)cc2F)CC1 (stereo not shown) [Compound 67, N,N-Diethyl-2-{4-[2-fluoro-4-(5-methyl-[1,2,4]oxadiazol-3-yl)-phenyl]-piperazin-1-yl}-2-phenyl-acetamide] | 200 |
| CCN(CC)C(=O)C(c1ccccc1)N1CCN(c2ccc(-c3noc(C(C)C)n3)cc2F)CC1 (stereo not shown) [Compound 69, N,N-Diethyl-2-{4-[2-fluoro-4-(5-isopropyl-[1,2,4]oxadiazol-3-yl)-phenyl]-piperazin-1-yl}-2-phenyl-acetamide] | 50.1 |
| CCN(CC)C(=O)C(c1ccccc1)N1CCN(c2ccc(-c3nc(C)no3)cc2F)CC1 (stereo not shown) [Compound 119, N,N-Diethyl-2-{4-[2-fluoro-4-(3-methyl-[1,2,4]oxadiazol-5-yl)-phenyl]-piperazin-1-yl}-2-phenyl-acetamide] | 89.1 |
